Drawing on US10351547B2, “Somatostatin modulators and uses thereof” (priority 2016, dated 2019), this text covers EC50 for 28 molecules.

As a reminder, the pEC50 is the negative decadic logarithm of the EC50, by convention in mol/L.

pEC50: −log10 of the molar value.

Sequence of human SSTR2 (P30874 whole entry): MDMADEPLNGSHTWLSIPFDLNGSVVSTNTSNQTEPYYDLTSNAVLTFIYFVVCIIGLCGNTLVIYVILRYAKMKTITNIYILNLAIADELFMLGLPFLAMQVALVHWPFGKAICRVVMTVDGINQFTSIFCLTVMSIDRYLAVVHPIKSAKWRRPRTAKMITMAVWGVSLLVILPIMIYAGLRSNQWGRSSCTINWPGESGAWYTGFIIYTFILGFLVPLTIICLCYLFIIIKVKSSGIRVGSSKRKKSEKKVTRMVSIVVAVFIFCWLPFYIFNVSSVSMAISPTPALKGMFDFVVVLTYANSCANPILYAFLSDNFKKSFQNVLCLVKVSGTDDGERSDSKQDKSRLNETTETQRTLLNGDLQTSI

The first test addresses human SSTR2 (Homo sapiens (Human), UniProt P30874). Nature of the test: Human SSTR2 intracellular cAMP functional assay for agonists (HTRF). Type of test: cell-based.
Settings: not given
Here is the method: Functional Assay for SSTR2 Agonists
General overview: All five SSTR subtypes are Gi coupled G-protein coupled receptors (GPCRs) that lead to decreases in intracellular cyclic AMP (cAMP) when activated by an agonist. […] Human SSTR2 intracellular cAMP assay is described below. The human SSTR1, 3, 4 and 5 assays follow the same protocol of SSTR2.
The cells are cultured at 37° C., 5% CO2 and 95% humidity. […] The cells are incubated for 20 minutes at 37° C. […] The cells are treated with 50 μL of lysis buffer (HRTF cAMP kit, Cisbio). […] The time-resolved fluorescent signal is read with a Tecan M1000Pro multiplate reader. The intracellular cAMP concentrations are calculated by regression to a standard curve and are plotted vs. the concentration of the compounds of the invention and the EC50 of the compounds are calculated using standard methods. All data manipulations are in GraphPad Prism v6.
`Cc1cc(C)cc(-c2nnc3cc(Cl)c(Cl)cc3c2N2CCC(N)CC2)c1` [1-3, 1-[6,7-dichloro-3-(3,5-dimethylphenyl)cinnolin-4-yl]piperidin-4-amine] showed a pEC50 of 6.00 to 7.00.

Still in this test, the particulars now being: CHO-K1 cells stably expressing human SSTR2; NKH477-stimulated cAMP; read-out: EC50 (inhibition of cAMP activities via human SST2R).
On to `COCCOc1c(C#N)cc(F)cc1-c1ccc2ncc(-c3cc(F)cc(F)c3)c(N3CC[C@H](N)[C@H](O)C3)c2c1` (relative stereo) [2-232, cis-3-{4-[4-amino-3-hydroxypiperidin-1-yl]-3-(3,5-difluorophenyl)quinolin-6-yl}-5-fluoro-2-(2-methoxyethoxy)benzonitrile], for which the negative-log EC50 (pEC50) was over 8.00. The same measure, in the same setting: the result for `COC(=O)Nc1c(F)cc(F)cc1-c1ccc2ncc(-c3cc(C)cc(F)c3)c(N3CC[C@@H](N)[C@H](OC)C3)c2c1` (relative stereo) [2-235, methyl N-(2-{4-[trans-4-amino-3-methoxypiperidin-1-yl]-3-(3-fluoro-5-methylphenyl)quinolin-6-yl}-4,6-difluorophenyl)carbamate] reads over 8.00; that for `Cn1cc(-c2ccc3ncc(-c4cc(F)cc(F)c4)c(N4CC[C@H]5NCCO[C@@H]5C4)c3c2)c(N)n1` (relative stereo) [2-245, 4-{4-[trans-octahydro-1H-pyrido[3,4-b]morpholin-6-yl]-3-(3,5-difluorophenyl)quinolin-6-yl}-1-methyl-1H-pyrazol-3-amine], over 8.00; that for `Cc1ccnc(-c2ccc3ncc(-c4cc(F)cc(F)c4)c(N4CC[C@H]5NCCO[C@@H]5C4)c3c2)c1N` (relative stereo) [2-247, 2-{4-[trans-octahydro-1H-pyrido[3,4-b]morpholin-6-yl]-3-(3,5-difluorophenyl)quinolin-6-yl}-4-methylpyridin-3-amine], over 8.00. On the same count and under the same terms, under `COCCNc1c(C#N)cncc1-c1ccc2ncc(-c3cc(F)cc(F)c3)c(N3CC[C@H]4NCCO[C@@H]4C3)c2c1` (relative stereo) [2-252, 5-{4-[trans-octahydro-1H-pyrido[3,4-b]morpholin-6-yl]-3-(3,5-difluorophenyl)quinolin-6-yl}-4-[(2-methoxyethyl)amino]pyridine-3-carbonitrile] stands over 8.00; under `Cn1ncc(-c2ccc3ncc(-c4cc(F)cc(F)c4)c(N4CC[C@H]5NCCO[C@@H]5C4)c3c2)c1C=NO` (relative stereo) [2-253, N-[(4-{4-[trans-octahydro-1H-pyrido[3,4-b]morpholin-6-yl]-3-(3,5-difluorophenyl)quinolin-6-yl}-1-methyl-1H-pyrazol-5-yl)methylidene]hydroxylamine], over 8.00; under `Nc1cncnc1-c1ccc2ncc(-c3cc(F)cc(F)c3)c(N3CC[C@H]4NCCO[C@@H]4C3)c2c1` (relative stereo) [2-255, 4-{4-[trans-octahydro-1H-pyrido[3,4-b]morpholin-6-yl]-3-(3,5-difluorophenyl)quinolin-6-yl}pyrimidin-5-amine], 7.00 to 8.00. Same read-out and setting: under `Oc1c(F)cncc1-c1ccc2ncc(-c3cc(F)cc(F)c3)c(N3CC[C@H]4NCCO[C@@H]4C3)c2c1` (relative stereo) [2-256] stands 7.00 to 8.00; under `Cn1cc(-c2ccc3ncc(-c4cc(F)cc(F)c4)c(N4CC[C@H]5NCCO[C@@H]5C4)c3c2)c(C(N)=O)n1` (relative stereo) [2-257, 4-{4-[trans-octahydro-1H-pyrido[3,4-b]morpholin-6-yl]-3-(3,5-difluorophenyl)quinolin-6-yl}-1-methyl-1H-pyrazole-3-carboxamide], 7.00 to 8.00; under `Oc1ncc(F)cc1-c1ccc2ncc(-c3cc(F)cc(F)c3)c(N3CC[C@H]4NCCO[C@@H]4C3)c2c1` (relative stereo) [2-259], over 8.00. `Cn1cc(-c2ccc3ncc(-c4cc(F)cc(F)c4)c(N4CC[C@H]5NCCO[C@@H]5C4)c3c2)c(C=NO)n1` (relative stereo) [2-260, N-[(4-{4-[trans-octahydro-1H-pyrido[3,4-b]morpholin-6-yl]-3-(3,5-difluorophenyl)quinolin-6-yl}-1-methyl-1H-pyrazol-3-yl)methylidene]hydroxylamine]: the pEC50 was over 8.00. The same measure, in the same setting: the result for `N#Cc1ccnc(-c2ccc3ncc(-c4cc(F)cc(F)c4)c(N4CC[C@H]5NCCO[C@@H]5C4)c3c2)c1F` (relative stereo) [2-261, 2-{4-[trans-octahydro-1H-pyrido[3,4-b]morpholin-6-yl]-3-(3,5-difluorophenyl)quinolin-6-yl}-3-fluoropyridine-4-carbonitrile] reads 7.00 to 8.00. On the same count and under the same terms, the result for `Oc1cccnc1-c1ccc2ncc(-c3cc(F)cc(F)c3)c(N3CC[C@H]4NCCO[C@@H]4C3)c2c1` (relative stereo) [2-263, 2-{4-[trans-octahydro-1H-pyrido[3,4-b]morpholin-6-yl]-3-(3,5-difluorophenyl)quinolin-6-yl}pyridin-3-ol] reads over 8.00; that for `Nc1cc(F)cnc1-c1ccc2ncc(-c3cc(F)cc(F)c3)c(N3CC[C@H]4NCCO[C@@H]4C3)c2c1` (relative stereo) [2-265, 2-{4-[trans-octahydro-1H-pyrido[3,4-b]morpholin-6-yl]-3-(3,5-difluorophenyl)quinolin-6-yl}-5-fluoropyridin-3-amine], over 8.00. Still for that read-out and setting: the result for `CON=Cc1cncc(-c2ccc3ncc(-c4cc(F)cc(F)c4)c(N4CC[C@H]5NCCO[C@@H]5C4)c3c2)c1N` (relative stereo) [2-266] reads over 8.00.

As to `Nc1c(-c2ccc3ncc(-c4cc(F)cc(F)c4)c(N4CC[C@H]5NCCO[C@@H]5C4)c3c2)cncc1C1CC1` (relative stereo) [2-267, 3-{4-[trans-octahydro-1H-pyrido[3,4-b]morpholin-6-yl]-3-(3,5-difluorophenyl)quinolin-6-yl}-5-cyclopropylpyridin-4-amine], the negative logarithm of the EC50 (pEC50) was 7.00 to 8.00.

For the molecule `Nc1c(-c2ccc3ncc(-c4cc(F)cc(F)c4)c(N4CC[C@H]5NCCO[C@@H]5C4)c3c2)cnn1C1COC1` (relative stereo) [2-268, 4-{4-[trans-octahydro-1H-pyrido[3,4-b]morpholin-6-yl]-3-(3,5-difluorophenyl)quinolin-6-yl}-1-(oxetan-3-yl)-1H-pyrazol-5-amine], the pEC50 is 7.00 to 8.00. Same read-out and setting: under `CC#Cc1cncc(-c2ccc3ncc(-c4cc(F)cc(F)c4)c(N4CC[C@H]5NCCO[C@@H]5C4)c3c2)c1N` (relative stereo) [2-272, 3-{4-[trans-octahydro-1H-pyrido[3,4-b]morpholin-6-yl]-3-(3,5-difluorophenyl)quinolin-6-yl}-5-(prop-1-yn-1-yl)pyridin-4-amine] stands over 8.00; under `C#Cc1cncc(-c2ccc3ncc(-c4cc(F)cc(F)c4)c(N4CC[C@H]5OCCN[C@@H]5C4)c3c2)c1N` (relative stereo) [2-274, 3-{4-[trans-octahydro-1H-pyrido[3,4-b]morpholin-6-yl]-3-(3,5-difluorophenyl)quinolin-6-yl}-5-ethynylpyridin-4-amine], over 8.00; under `Nc1c(Cl)ccnc1-c1ccc2ncc(-c3cc(F)cc(F)c3)c(N3CC[C@H]4NCCO[C@@H]4C3)c2c1` (relative stereo) [2-275, 2-{4-[trans-octahydro-1H-pyrido[3,4-b]morpholin-6-yl]-3-(3,5-difluorophenyl)quinolin-6-yl}-4-chloropyridin-3-amine], over 8.00. Still for that read-out and setting: under `Nc1cccnc1-c1ccc2ncc(-c3cc(F)cc(F)c3)c(N3CC[C@H]4NCCO[C@@H]4C3)c2c1` (relative stereo) [2-283, 2-{4-[trans-octahydro-1H-pyrido[3,4-b]morpholin-6-yl]-3-(3,5-difluorophenyl)quinolin-6-yl}pyridin-3-amine] stands 7.00 to 8.00; under `O=c1[nH]c2cc(-c3ccc4ncc(-c5cc(F)cc(F)c5)c(N5CC[C@H]6NCCO[C@@H]6C5)c4n3)cc(F)c2[nH]1` (relative stereo) [3-10, 6-{8-[trans-octahydro-1H-pyrido[3,4-b]morpholin-6-yl]-7-(3,5-difluorophenyl)-1,5-naphthyridin-2-yl}-4-fluoro-2,3-dihydro-1H-1,3-benzodiazol-2-one], over 8.00; under `Cc1cc(C)cc(-c2nnc3cc(Cl)c(-c4cc(F)cc(C(N)=O)c4)cc3c2N2CCC(N)CC2)c1` [1-1, 3-[4-(4-aminopiperidin-1-yl)-7-chloro-3-(3,5-dimethylphenyl)cinnolin-6-yl]-5-fluorobenzamide], over 8.00.

As to `Cc1cc(C)cc(-c2nnc3cc(Cl)c(-c4cccc(C#N)c4O)cc3c2N2CCC(N)CC2)c1` [1-2, 3-[4-(4-aminopiperidin-1-yl)-7-chloro-3-(3,5-dimethylphenyl)cinnolin-6-yl]-2-hydroxybenzonitrile], the pEC50 was over 8.00. Still for that read-out and setting: the result for `Cc1cc(F)cc(-c2nnc3cc(Cl)c(-c4cc(F)cc(C(N)=O)c4)cc3c2N2CCC(N)CC2)c1` [1-4, 3-[4-(4-aminopiperidin-1-yl)-7-chloro-3-(3-fluoro-5-methylphenyl)cinnolin-6-yl]-5-fluorobenzamide] reads over 8.00; that for `Cc1cc(F)cc(-c2nnc3cc(Cl)c(-c4cccc(C#N)c4O)cc3c2N2CCC(N)CC2)c1` [1-7, 3-[4-(4-aminopiperidin-1-yl)-7-chloro-3-(3-fluoro-5-methylphenyl)cinnolin-6-yl]-2-hydroxybenzonitrile], over 8.00; that for `Cc1cc(F)cc(-c2nnc3cc(Cl)c(-c4ccc5[nH]c(=O)[nH]c5c4)cc3c2N2CCC(N)CC2)c1` [1-8, 5-[4-(4-aminopiperidin-1-yl)-7-chloro-3-(3-fluoro-5-methylphenyl)cinnolin-6-yl]-2,3-dihydro-1H-1,3-benzodiazol-2-one], over 8.00.
